# Target: T1, human GlyT1c transporter (Homo sapiens, UniProt P48067)
# T1 construct: expressed in transfected cells; host or cells: CHO cells (recombinant; line hGlyT1c_5_CHO is named for the uptake assay)
# T1 sequence (P48067 1-706): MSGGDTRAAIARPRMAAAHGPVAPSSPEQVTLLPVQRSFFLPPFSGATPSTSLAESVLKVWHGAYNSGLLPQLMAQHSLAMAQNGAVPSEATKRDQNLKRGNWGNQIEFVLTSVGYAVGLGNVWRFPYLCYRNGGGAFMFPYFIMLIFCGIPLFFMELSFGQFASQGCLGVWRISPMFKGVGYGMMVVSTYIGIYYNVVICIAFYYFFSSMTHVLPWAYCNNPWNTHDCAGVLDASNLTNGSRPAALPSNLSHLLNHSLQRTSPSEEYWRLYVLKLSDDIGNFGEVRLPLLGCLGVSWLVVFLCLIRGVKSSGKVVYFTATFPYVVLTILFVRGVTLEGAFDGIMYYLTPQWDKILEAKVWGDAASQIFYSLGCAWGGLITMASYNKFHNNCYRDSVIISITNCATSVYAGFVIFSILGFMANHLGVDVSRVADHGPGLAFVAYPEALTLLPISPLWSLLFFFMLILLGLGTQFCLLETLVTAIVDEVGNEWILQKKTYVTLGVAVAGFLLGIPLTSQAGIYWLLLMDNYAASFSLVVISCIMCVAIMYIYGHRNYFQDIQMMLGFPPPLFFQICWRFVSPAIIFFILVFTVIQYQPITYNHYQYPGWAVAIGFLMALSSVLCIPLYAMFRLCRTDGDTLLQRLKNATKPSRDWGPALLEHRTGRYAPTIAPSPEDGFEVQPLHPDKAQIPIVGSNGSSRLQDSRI
# Assay: Radioligand binding assay using recombinant CHO cell membranes expressing human GlyT1
# Conditions: radioligand binding to human GlyT1c transporter-expressing membranes
# Description: 2. Radioligand binding assays using recombinant CHO cell membranes expressing human GlyT1: […]
row,Structure (SMILES),Ki [µM]
1,"Cc1ccccc1C(=O)N[C@@H]1CN(S(=O)(=O)c2cn(C)cn2)C[C@H]1c1ccccc1 (relative stereo) [Example 22, 2-methyl-N-{trans-1-[(1-methyl-1H-imidazol-4-yl)sulfonyl]-4-phenylpyrrolidin-3-yl}benzamide]",≤ 10
2,"Cn1cnc(S(=O)(=O)N2C[C@@H](NC(=O)c3ccc(Cl)cc3Cl)[C@H](c3ccccc3)C2)c1 (relative stereo) [Example 26, 2,4-dichloro-N-{trans-1-[(1-methyl-1H-imidazol-4-yl)sulfonyl]-4-phenylpyrrolidin-3-yl}benzamide]",≤ 1
3,"Cn1cnc(S(=O)(=O)N2C[C@@H](NC(=O)c3ccc(F)cc3Cl)[C@H](c3ccccc3)C2)c1 (relative stereo) [Example 27, 2-chloro-4-fluoro-N-{trans-1-[(1-methyl-1H-imidazol-4-yl)sulfonyl]-4-phenylpyrrolidin-3-yl}benzamide]",≤ 1
4,"Cn1cnc(S(=O)(=O)N2C[C@@H](Nc3ccccc3)[C@H](c3ccccc3)C2)c1 (relative stereo) [Example 29, trans-1-[(1-methyl-1H-imidazol-4-yl)sulfonyl]-N,4-diphenylpyrrolidin-3-amine]",≤ 1
5,"Cn1cnc(S(=O)(=O)N2C[C@@H](NC(=O)c3cccc(Cl)c3Cl)[C@H](c3ccccc3)C2)c1 (relative stereo) [Example 31, 2,3-dichloro-N-{trans-1-[(1-methyl-1H-imidazol-4-yl)sulfonyl]-4-phenylpyrrolidin-3-yl}benzamide]",≤ 1
6,"Cn1cnc(S(=O)(=O)N2C[C@@H](NC(=O)c3ccccc3C#N)[C@H](c3ccccc3)C2)c1 (relative stereo) [Example 32, 2-cyano-N-{trans-1-[(1-methyl-1H-imidazol-4-yl)sulfonyl]-4-phenylpyrrolidin-3-yl} benzamide]",≤ 10
7,"Cn1cnc(S(=O)(=O)N2C[C@@H](NC(=O)c3ccc(C#N)cc3)[C@H](c3ccccc3)C2)c1 (relative stereo) [Example 34, 4-cyano-N-{trans-1-[(1-methyl-1H-imidazol-4-yl)sulfonyl]-4-phenylpyrrolidin-3-yl} benzamide]",≤ 10
8,"Cn1cnc(S(=O)(=O)N2C[C@@H](NC(=O)c3cccc(C(F)(F)F)c3)[C@H](c3ccccc3)C2)c1 (relative stereo) [Example 36, N-{trans-1-[(1-methyl-1H-imidazol-4-yl)sulfonyl]-4-phenylpyrrolidin-3-yl}-3-(trifluoromethyl)benzamide]",≤ 1
9,"Cc1nn(C(F)F)c(C)c1S(=O)(=O)N1C[C@@H](NC(=O)c2cccc(C(F)(F)F)c2Cl)[C@H](c2ccccc2)C1 (relative stereo) [Example 39, 2-chloro-N-[trans-1-{[1-(difluoromethyl)-3,5-dimethyl-1H-pyrazol-4-yl]sulfonyl}-4-phenylpyrrolidin-3-yl]-3-(trifluoromethyl)benzamide]",≤ 10
10,"Cc1nn(C)c(Cl)c1S(=O)(=O)N1C[C@@H](NC(=O)c2cccc(C(F)(F)F)c2Cl)[C@H](c2ccccc2)C1 (relative stereo) [Example 40, 2-chloro-N-{trans-1-[(5-chloro-1,3-dimethyl-1H-pyrazol-4-yl)sulfonyl]-4-phenylpyrrolidin-3-yl}-3-(trifluoromethyl)benzamide]",≥ 10
11,"O=C(N[C@@H]1CN(S(=O)(=O)c2cn[nH]c2)C[C@H]1c1ccccc1)c1cccc(C(F)(F)F)c1Cl (relative stereo) [Example 46, 2-chloro-N-[trans-4-phenyl-1-(1H-pyrazol-4-ylsulfonyl)pyrrolidin-3-yl]-3-(trifluoromethyl)benzamide]",≥ 10

# Now from value to molecule:
row,Ki [µM],Structure (SMILES)
1,≤ 10,"COc1cccc(C(=O)N[C@@H]2CN(S(=O)(=O)c3cn(C)cn3)C[C@H]2c2ccccc2)c1 (relative stereo) [Example 21, 3-methoxy-N-{trans-1-[(1-methyl-1H-imidazol-4-yl)sulfonyl]-4-phenylpyrrolidin-3-yl}benzamide]"
2,≤ 10,"Cc1cccc(C(=O)N[C@@H]2CN(S(=O)(=O)c3cn(C)cn3)C[C@H]2c2ccccc2)c1 (relative stereo) [Example 23, 3-methyl-N-{trans-1-[(1-methyl-1H-imidazol-4-yl)sulfonyl]-4-phenylpyrrolidin-3-yl}benzamide]"
3,≤ 10,"Cc1ccc(C(=O)N[C@@H]2CN(S(=O)(=O)c3cn(C)cn3)C[C@H]2c2ccccc2)cc1 (relative stereo) [Example 24, 4-methyl-N-{trans-1-[(1-methyl-1H-imidazol-4-yl)sulfonyl]-4-phenylpyrrolidin-3-yl}benzamide]"
4,≤ 10,"Cn1cnc(S(=O)(=O)N2C[C@@H](NC(=O)c3ccccc3)[C@H](c3ccccc3)C2)c1 (relative stereo) [Example 25, N-{trans-1-[(1-methyl-1H-imidazol-4-yl)sulfonyl]-4-phenylpyrrolidin-3-yl}benzamide]"
5,≤ 10,"Cn1cnc(S(=O)(=O)N2C[C@@H](NC(=O)c3cc(Cl)cc(Cl)c3)[C@H](c3ccccc3)C2)c1 (relative stereo) [Example 30, 3,5-dichloro-N-{trans-1-[(1-methyl-1H-imidazol-4-yl)sulfonyl]-4-phenylpyrrolidin-3-yl}benzamide]"
6,≤ 10,"Cn1cnc(S(=O)(=O)N2C[C@@H](NC(=O)c3cccc(C#N)c3)[C@H](c3ccccc3)C2)c1 (relative stereo) [Example 33, 3-cyano-N-{trans-1-[(1-methyl-1H-imidazol-4-yl)sulfonyl]-4-phenylpyrrolidin-3-yl}benzamide]"
7,≤ 10,"Cn1cnc(S(=O)(=O)N2C[C@@H](NC(=O)c3ccccc3C(F)(F)F)[C@H](c3ccccc3)C2)c1 (relative stereo) [Example 35, N-{trans-1-[(1-methyl-1H-imidazol-4-yl)sulfonyl]-4-phenylpyrrolidin-3-yl}-2-(trifluoromethyl)benzamide]"
8,≤ 1,"Cn1cnc(S(=O)(=O)N2C[C@@H](NC(=O)c3ccc(C(F)(F)F)cc3)[C@H](c3ccccc3)C2)c1 (relative stereo) [Example 37, N-{trans-1-[(1-methyl-1H-imidazol-4-yl)sulfonyl]-4-phenylpyrrolidin-3-yl}-4-(trifluoromethyl)benzamide]"
9,≤ 10,"Cn1cc(S(=O)(=O)N2C[C@@H](NC(=O)c3cccc(C(F)(F)F)c3Cl)[C@H](c3ccccc3)C2)c(C(F)(F)F)n1 (relative stereo) [Example 38, 2-chloro-N-[trans-1-{[1-methyl-3-(trifluoromethyl)-1H-pyrazol-4-yl]sulfonyl}-4-phenylpyrrolidin-3-yl]-3-(trifluoromethyl)benzamide]"
10,≤ 10,"Cc1c(S(=O)(=O)N2C[C@@H](NC(=O)c3cccc(C(F)(F)F)c3Cl)[C@H](c3ccccc3)C2)cnn1C (relative stereo) [Example 41, 2-chloro-N-{trans-1-[(1,5-dimethyl-1H-pyrazol-4-yl)sulfonyl]-4-phenylpyrrolidin-3-yl}-3-(trifluoromethyl)benzamide]"
11,≤ 10,"Cc1nn(C)cc1S(=O)(=O)N1C[C@@H](NC(=O)c2cccc(C(F)(F)F)c2Cl)[C@H](c2ccccc2)C1 (relative stereo) [Example 42, 2-chloro-N-{trans-1-[(1,3-dimethyl-1H-pyrazol-4-yl)sulfonyl]-4-phenylpyrrolidin-3-yl}-3-(trifluoromethyl)benzamide]"
12,≤ 10,"Cn1cc(S(=O)(=O)N2C[C@@H](NC(=O)c3cccc(C(F)(F)F)c3Cl)[C@H](c3ccccc3)C2)cn1 (relative stereo) [Example 43, 2-chloro-N-{trans-1-[(1-methyl-1H-pyrazol-4-yl)sulfonyl]-4-phenylpyrrolidin-3-yl}-3-(trifluoromethyl)benzamide]"
13,≤ 10,"COc1ccc(S(=O)(=O)N2C[C@@H](NC(=O)c3cccc(C(F)(F)F)c3Cl)[C@H](c3ccccc3)C2)cn1 (relative stereo) [Example 44, 2-chloro-N-{trans-1-[(6-methoxypyridin-3-yl)sulfonyl}-4-phenylpyrrolidin-3-yl}-3-(trifluoromethyl)benzamide]"
14,≥ 10,"O=C(N[C@@H]1CN(S(=O)(=O)c2cccnc2)C[C@H]1c1ccccc1)c1cccc(C(F)(F)F)c1Cl (relative stereo) [Example 45, 2-chloro-N-[trans-4-phenyl-1-(pyridin-3-ylsulfonyl)pyrrolidin-3-yl]-3-(trifluoromethyl)benzamide]"
15,≥ 10,"Cn1nccc1S(=O)(=O)N1C[C@@H](NC(=O)c2cccc(C(F)(F)F)c2Cl)[C@H](c2ccccc2)C1 (relative stereo) [Example 47, 2-chloro-N-{trans-1-[(1-methyl-1H-pyrazol-5-yl)sulfonyl]-4-phenylpyrrolidin-3-yl}-3-(trifluoromethyl)benzamide]"
16,≤ 10,"Cn1cnc(S(=O)(=O)N2C[C@@H](NC(=O)c3cccc(C(F)(F)F)c3Cl)[C@H](c3ccccc3)C2)c1Cl (relative stereo) [Example 48, 2-chloro-N-{trans-1-[(5-chloro-1-methyl-1H-imidazol-4-yl)sulfonyl]-4-phenylpyrrolidin-3-yl}-3-(trifluoromethyl)benzamide]"
